# Assay results taken from publication PMC6220303 (EMBO Molecular Medicine, 2018).
# Where “and” joins values, the source holds several entries; their conditions need not be identical. Equal values may be shown once.
# How the values were obtained:
# Ghrelin receptor (GHS) = Ghrelin receptor (GHS) (Homo sapiens, UniProt Q92847); test: Receptor panel binding; details: read-out: Inhibition at 10 µM
# Protocol: (§1) Cellular Aβ release assays were done in CHO cells stably transfected with human wild‐type and human APP were done as described (Neumann et al, 2015). Determinations of logD, pKa, and binding to brain homogenates were done internally at Novartis, Basel. Plasma protein binding was determined by equilibrium dialysis using diluted plasma from the corresponding species. MDR‐1‐MDCK cells were obtained from Prof. A. Berns, Netherlands Cancer Institute, Amsterdam NL, and bi‐directional transport measurements were done as described (Rueeger et al, 2011). Receptor binding assays were done against an internal receptor panel and externally at Ricerca Biosciences, Peitou, Taiwan. In vitro binding and cellular patch clamp assays for hERG were done at Preclinical Safety, Novartis, Basel.
# [1] = tested on: healthy participants ≥ 60 years; test: Adverse events after single dose (Appendix Table S6); format: in vivo, human
# Text: For further details, see the Appendix Table S10 in Appendix and the accompanying clinical protocols synopsis (Appendix Table S11).
# Appendix Table S3. Overview of completed clinical studies with CNP520
# Study description Population No. of Participants Dose/Frequency […]
# First-in-human, randomized, 18-55 yrs 38 / 14 Single dose (10, 30, 90, […]
# controlled, single and multiple CNP520 vs placebo) ascending oral dose study to Single dose (10, 90, 300,
# [2] = tested on: CHO cells (“Swedish” APP); test: Cellular Aβ40 release assay; format: cell-based; details: Cricetulus griseus, inhibition of Aβ40 release, three batches, triplicates
# Protocol: as §1
# [3] = tested on: CHO cells (wild‐type APP); test: Cellular Aβ40 release assay; format: cell-based; details: Cricetulus griseus, inhibition of Aβ40 release, six batches, each in triplicate
# Protocol: as §1
# CSF Aβ40 = test: Human CSF Aβ40, Phase IIa study of 3-month duration; format: in vivo; details: for reduction in CSF Aβ40 concentrations: 3 months, mean ± SEM
# Text: All study participants underwent CSF sampling at baseline and at the end of treatment; in addition, we collected CSF at a number of intermediate time points (n = 2–7/time point).
# CSF Aβ38, Aβ40, Aβ42, sAPPα, and sAPPβ were quantified in human CSF with 0.2% (v/v) Tween®‐20 using validated sandwich‐based multiplexed electrochemiluminescence methods (MesoScale Discovery, […], MD, USA). […]
# Secondary • To assess the change from baseline of CSF Aβ concentrations (Aβ1-
# Objectives 38; Aβ1-40; Aβ1-42) in healthy elderly subjects over 13 weeks
# [4] = target: Monoamine transporter VMAT2 (Oryctolagus cuniculus, UniProt G1T2K3); test: Receptor panel binding; set-up: species or system Rabbit; details: read-out: Inhibition at 10 µM
# Protocol: as §1
# pKa determination = format: physicochemical; details: cyclic amidine
# Protocol: as §1
# Monoamine transporter VMAT2, sequence (G1T2K3 1-509): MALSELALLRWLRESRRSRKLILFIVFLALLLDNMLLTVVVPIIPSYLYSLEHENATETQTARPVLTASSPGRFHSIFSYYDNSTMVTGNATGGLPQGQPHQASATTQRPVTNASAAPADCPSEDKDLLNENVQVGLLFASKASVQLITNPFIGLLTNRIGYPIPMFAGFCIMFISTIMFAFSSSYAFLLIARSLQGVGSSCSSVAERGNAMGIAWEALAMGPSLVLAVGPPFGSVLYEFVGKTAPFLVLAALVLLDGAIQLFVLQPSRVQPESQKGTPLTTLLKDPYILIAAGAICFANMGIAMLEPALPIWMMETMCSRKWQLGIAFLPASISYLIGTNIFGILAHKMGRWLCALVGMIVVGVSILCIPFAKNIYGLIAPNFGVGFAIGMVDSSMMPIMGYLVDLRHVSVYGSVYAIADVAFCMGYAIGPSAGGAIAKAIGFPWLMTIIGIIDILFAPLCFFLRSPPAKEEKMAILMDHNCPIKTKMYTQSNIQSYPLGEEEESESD
# Ghrelin receptor (GHS), sequence (Q92847 whole entry): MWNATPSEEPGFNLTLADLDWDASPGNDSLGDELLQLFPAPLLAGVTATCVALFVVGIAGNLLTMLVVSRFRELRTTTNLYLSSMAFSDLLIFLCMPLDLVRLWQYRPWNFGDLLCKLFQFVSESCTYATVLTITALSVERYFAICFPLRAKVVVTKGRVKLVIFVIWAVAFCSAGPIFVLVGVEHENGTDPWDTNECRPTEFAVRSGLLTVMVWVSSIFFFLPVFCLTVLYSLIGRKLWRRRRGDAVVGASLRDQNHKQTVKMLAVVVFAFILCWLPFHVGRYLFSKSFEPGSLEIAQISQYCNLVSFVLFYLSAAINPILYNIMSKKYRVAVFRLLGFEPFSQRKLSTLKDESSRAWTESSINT
smiles,measurement,setting,value
C[C@@]1(c2nc(NC(=O)c3ncc(C(F)(F)F)cc3Cl)ccc2F)CO[C@@](C)(C(F)(F)F)C(N)=N1 [CNP520],inhibition at 10 µM,Ghrelin receptor (GHS),79%
same,AE incidence: Blood and lymphatic system disorders,"[1]; single dose 300 mg, N = 10",1 (10.0) n (%)
same,AE incidence: Cardiac disorders,"[1]; single dose 300 mg, N = 10",1 (10.0) n (%)
same,AE incidence: Gastrointestinal disorders,"[1]; single dose 300 mg, N = 10",4 (40.0) n (%)
same,AE incidence: General disorders and administration site conditions,"[1]; single dose 300 mg, N = 10",3 (30.0) n (%)
same,AE incidence: Nervous system disorders,"[1]; single dose 300 mg, N = 10",4 (40.0) n (%)
same,AE incidence: Renal and urinary disorders,"[1]; single dose 300 mg, N = 10",0 (0.0) n (%)
same,"AE incidence: Respiratory, thoracic and mediastinal disorders","[1]; single dose 300 mg, N = 10",2 (20.0) n (%)
same,AE incidence: Skin and subcutaneous tissue disorders,"[1]; single dose 300 mg, N = 10",3 (30.0) n (%)
same,Participants with at least one AE,"[1]; single dose 300 mg, N = 10",10 (100.0) n (%)
same,AE incidence: Blood and lymphatic system disorders,"[1]; single dose 750 mg, N = 11",0 (0.0) n (%)
same,AE incidence: Cardiac disorders,"[1]; single dose 750 mg, N = 11",0 (0.0) n (%)
same,AE incidence: Gastrointestinal disorders,"[1]; single dose 750 mg, N = 11",3 (27.3) n (%)
same,AE incidence: General disorders and administration site conditions,"[1]; single dose 750 mg, N = 11",3 (27.3) n (%)
same,AE incidence: Nervous system disorders,"[1]; single dose 750 mg, N = 11",7 (63.6) n (%)
same,AE incidence: Renal and urinary disorders,"[1]; single dose 750 mg, N = 11",1 (9.1) n (%)
same,"AE incidence: Respiratory, thoracic and mediastinal disorders","[1]; single dose 750 mg, N = 11",0 (0.0) n (%)
same,AE incidence: Skin and subcutaneous tissue disorders,"[1]; single dose 750 mg, N = 11",1 (9.1) n (%)
same,Participants with at least one AE,"[1]; single dose 750 mg, N = 11",9 (81.8) n (%)
same,IC50,[2],44 ± 0.4 nM
same,IC50,[3],2.8 ± 0.2 nM
same,reduction in CSF Aβ40 concentrations,CSF Aβ40; 2-mg daily dose,22.6 ± 2.1%
same,reduction in CSF Aβ40 concentrations,CSF Aβ40; 85-mg daily dose,90.7 ± 0.37%
same,ED50(free),"CSF Aβ40; corrected for plasma protein binding, human plasma",3.3 nM
same,ED50: total plasma CNP520 concentration at fifty percent reduction of CSF Aβ40,"CSF Aβ40; human plasma, Phase IIa",37.5 ± 2.9 ng/ml and 73.5 ± 5.8 nM
same,inhibition at 10 µM,[4],79%
same,pKa,pKa determination,7.2
